Measurements reported in patent US20060069040A1, “GHB compositions” (priority 2004, published 2006).
Like-named read-outs stand apart in the source and are kept apart here.

Key:
[1] = tested on: CD-1 male mice; format: in vivo; conditions: for Effect on motor depression by oral GHB: Example 5: named compound 1200 mg/kg i.p. with GHB 1200 mg/kg orally; for Effect on GHB induced motor inhibition: Example 3: named compound 800 mg/kg i.p. 2 or 15 minutes before GHB 800 mg/kg i.p.
Procedure: (§1) CD-1 male mice (30-40 g) were housed 3 to 4 per cage in the animal care facility on a 12 hour light dark cycle with free access to water and food for at least 1 week before testing.
The Rota-rod is a validated and sensitive tool that has been developed to document neurological deficits after pharmacological treatments. In this test, mice are placed on an accelerating Rota-rod whose revolutions per minute increase from 4 to 40 cycles per minute in about 4 minutes. The time it takes for the mice to fall off the rod is the end point of the test. Initially, the mice were given 3 practice runs on the rod to familiarize themselves with the test procedure. The time that mice remained on the rod was usually between five and ten minutes. A baseline measure was then made, the test drug given and the test procedure run every 20 minutes starting at time 0, immediately after drug administration. The mice were tested for 160 minutes after GHB administration although in some experiments recordings were made for as long as 280 minutes. Motor activity was expressed as a percentage of the baseline value. The time it took the mice to fall off the rod at a given time point after drug administration was divided by the time it took at baseline.
(§2) Statistical significance between control and treated groups at each time point in the present study was determined by student's t-test. Note that values of motor activity were expressed as a percentage of the baseline value which was normalized to 100%.

[2] = previous work (ref. 7); rats, tracer doses of GHB, intravenous infusion; cited from earlier work
[3] = tested on: CD-1 male mice; experiment: Passivity test (sleep induction and sleep time); format: in vivo; conditions: for Effect on GHB sleep time: Example 6: 7.93 mmol/kg of named agent mixed in solution with GHB 7.93 mmol/kg, oral gavage, 8 mice; for Effect on GHB induced sleep time: 800 mg/kg i.p. of named compound followed immediately by GHB 800 mg/kg i.p.; for Passivity test scores (2-8): 10 minutes after injection, 6 non-fasting mice, 0-normal, 8-no struggle; for GHB induced sleep time: n=6/group, GHB 800 mg/kg i.p. alone or immediately after 800 mg/kg i.p. of the named compound
Procedure: as §1
The passivity test developed by Irwing was used to determine sleep time. After GHB administration, the mice were placed in an unusual position and a score of 2, 4, 6, or 8 was given when the mice ceased to struggle against respectively being suspended vertically, rotated horizontally onto their backs, suspended by their hind limbs or suspended by their forelimbs. Scores on the passivity test were determined every 10 minutes after GHB administration. […] The time between scores of 8 and 2 was defined as the total sleep time.
as §2
The optimal dose of GHB for inducing sleep was determined with the passivity test. GHB was dissolved in 0.9% NaCl and 1% Tween 80 and delivered intraperitoneally (i.p.) to 4 groups of 6 mice that had not been fasting. Each group received either 200 mg/kg, 400 mg/kg, 600 mg/kg and 800 mg/kg. […] For this reason, this dose was used in the initial exploratory studies.

[4] = tested on: male Wistar rats; experiment: Core body temperature (Tb) and locomotor activity (LMA) recording by implanted transmitter; format: in vivo; conditions: IP dosing at ZT19, GHB 200 mg/kg in all drug conditions, comparators and ZT hours in the value
[5] = tested on: male Wistar rats; experiment: EEG/EMG sleep recording after IP dosing; conditions: for NR bout duration (NRBD): lights on
[6] = man, GHB given orally; cited from earlier work
[7] = cited from earlier work
[8] = Table 2: i.p., all compounds 800 mg/kg, mice not fasting, n=6, 2′ or 15′ in label = preincubation before GHB
[9] = Table 3: oral, GHB 800 mg/kg, PA 66 mg/kg, mice fasting 12 hours, n=6
[10] = Table 4: GHB orally, GAL/GL/GA intraperitoneally, all 1200 mg/kg, mice fasting 1 hour, n=6
[11] = rats, IP dosing at ZT19, comparators and ZT hours in the value

SMILES: O=C([O-])[C@@H](O)[C@@H](O)[C@H](O)[C@@H](O)CO.[Na+] [G, L-gulonic acid sodium salt]
- Effect on motor inhibition produced by GHB ([1]; mouse, in vivo, po): significantly prolonged and deepened the motor inhibition produced by GHB
- Effect on motor performance on its own ([1]; mouse, in vivo, po): had no effect on motor performance
- Percent of motor activity after GHB administration, 0′ ([1]; mouse, in vivo, po): 168 ± 5%
- Percent of motor activity after GHB administration, 20′ ([1]; mouse, in vivo, po): 50 ± 24%
- Percent of motor activity after GHB administration, 40′ ([1]; mouse, in vivo, po): 303 ± 12%
- Percent of motor activity after GHB administration, 60′ ([1]; mouse, in vivo, po): 183 ± 4%
- Percent of motor activity after GHB administration, 80′ ([1]; mouse, in vivo, po): 156 ± 2%
- Percent of motor activity after GHB administration, 100′ ([1]; mouse, in vivo, po): 66 ± 9%
- Percent of motor activity after GHB administration, 160′ ([1]; mouse, in vivo, po): 126 ± 3%
- Percent of motor activity after GHB administration, 220′ ([1]; mouse, in vivo, po): 303 ± 23%
- Percent of motor activity after GHB administration, 280′ ([1]; mouse, in vivo, po): 141 ± 5%
- Effect on plasma half-life of GHB [2]: can extend the plasma half-life of GHB
- Effect on GHB sleep time [3]: almost doubled the sleep time

SMILES: O=C([O-])[C@H](O)[C@@H](O)[C@H](O)[C@H](O)CO.[Na+] [GA, D-gluconic acid sodium salt]
- Effect on GHB induced sleep time ([3]; non-fasting mice): did not show an increase in GHB induced sleep time

SMILES: O=C([O-])CCCO.[Na+] [GHB, gamma-hydroxybutyrate sodium salt]
- Seizure-like activity ([1]; GHB 1200 mg/kg orally, mice): appeared to induce seizure-like activity in many of the mice
- Percent of motor activity after GHB administration, 20′ [1, 8]: 0 ± 0%
- Percent of motor activity after GHB administration, 40′ [1, 8]: 0 ± 0%
- Percent of motor activity after GHB administration, 60′ [1, 8]: 0 ± 0%
- Percent of motor activity after GHB administration, 80′ [1, 8]: 20 ± 2%
- Percent of motor activity after GHB administration, 100′ [1, 8]: 35 ± 12%
- Percent of motor activity after GHB administration, 120′ [1, 8]: 65 ± 5%
- Percent of motor activity after GHB administration, 140′ [1, 8]: 113 ± 20%
- Percent of motor activity after GHB administration, 160′ [1, 8]: 124 ± 20%
- Percent of motor activity after GHB administration, 0′ ([1]; Table 2: i.p., all compounds 800 mg/kg, mice not fasting, n=6, 2′ or 15′ in label = preincubation before GHB, % of baseline, mean ± S.E.M.): 31 ± 7%
- Percent of motor activity after GHB administration (oral), 20′ [1, 9]: 0 ± 0%
- Percent of motor activity after GHB administration (oral), 40′ [1, 9]: 7 ± 3%
- Percent of motor activity after GHB administration (oral), 60′ [1, 9]: 12 ± 6%
- Percent of motor activity after GHB administration (oral), 80′ [1, 9]: 20 ± 8%
- Percent of motor activity after GHB administration (oral), 100′ [1, 9]: 26 ± 5%
- Percent of motor activity after GHB administration (oral), 160′ [1, 9]: 86 ± 1%
- Percent of motor activity after GHB administration (oral), 220′ [1, 9]: 90 ± 8%
- Percent of motor activity after GHB administration (oral), 280′ [1, 9]: 100 ± 7%
- Percent of motor activity after GHB administration, 20′ [1, 10]: 27 ± 19%
- Percent of motor activity after GHB administration, 40′ [1, 10]: 0 ± 0%
- Percent of motor activity after GHB administration, 60′ [1, 10]: 3 ± 2%
- Percent of motor activity after GHB administration, 80′ [1, 10]: 4 ± 1%
- Percent of motor activity after GHB administration, 100′ [1, 10]: 5 ± 4%
- Percent of motor activity after GHB administration, 160′ [1, 10]: 21 ± 10%
- Percent of motor activity after GHB administration, 220′ [1, 10]: 61 ± 12%
- Percent of motor activity after GHB administration, 0′ ([1]; Table 4: GHB orally, GAL/GL/GA intraperitoneally, all 1200 mg/kg, mice fasting 1 hour, n=6, mean ± S.E.M.): 58 ± 9%
- Duration of reproducible decrease in motor activity ([1]; mouse, in vivo): more than 100 minutes
- Percent of motor activity after GHB administration (oral), 0′ ([1]; mouse, in vivo): 51 ± 1%
- Percent of motor activity after GHB administration, 0′ ([1]; mouse, in vivo, po): 94 ± 9%
- Percent of motor activity after GHB administration, 20′ ([1]; mouse, in vivo, po): 2 ± 2%
- Percent of motor activity after GHB administration, 40′ ([1]; mouse, in vivo, po): 0 ± 0%
- Percent of motor activity after GHB administration, 60′ ([1]; mouse, in vivo, po): 4 ± 1%
- Percent of motor activity after GHB administration, 80′ ([1]; mouse, in vivo, po): 10 ± 2%
- Percent of motor activity after GHB administration, 100′ ([1]; mouse, in vivo, po): 22 ± 7%
- Percent of motor activity after GHB administration, 160′ ([1]; mouse, in vivo, po): 104 ± 26%
- Percent of motor activity after GHB administration, 220′ ([1]; mouse, in vivo, po): 122 ± 23%
- Percent of motor activity after GHB administration, 280′ ([1]; mouse, in vivo, po): 117 ± 13%
- Duration of depressed motor activity ([1]; oral GHB at 1200 mg/kg, mice): at least 220 minutes
- Passivity test scores (2-8) ([3]; GHB 200 mg/kg i.p.): 0
- Passivity test scores (2-8) ([3]; GHB 400 mg/kg i.p.): 2 ± 0.38
- Passivity test scores (2-8) ([3]; GHB 600 mg/kg i.p.): 4 ± 0.25
- Passivity test scores (2-8) ([3]; GHB 800 mg/kg i.p.): 8 ± 0.42
- Time to reliably induce sleep ([3]; GHB 800 mg/kg i.p., non-fasting mice): ≤ 10 min
- Sleep time ([3]; Table 5: orally, all compounds 7.93 mmol/kg, mice fasting 24 hours, n=8/group, mean ± S.E.M.): 35 ± 10 min
- GHB induced sleep time ([3]; non-fasting mice): 96.5 ± 5 min
- Locomotor activity (LMA), hourly average [4]: significantly lower LMA compared to vehicle (ZT21)
- Rats that displayed SW activity ([5]; immediately following IP dosing, 8 rats): Seven of 8
- Spike and wave (SW) activity in the EEG ([5]; rats, IP dosing at ZT19, GHB 200 mg/kg in all drug conditions): elicited spike and wave activity (SW) in the EEG during the first hour following dosing
- Time spent awake (W), hourly [5, 11]: reduced W compared to vehicle during ZT 21
- Time spent in non-REM (NR) sleep, hourly [5, 11]: significantly greater than vehicle during ZT 21
- NR bout duration (NRBD) ([5]; rats, ZT 1 and 3): increased NRBD compared to GHB+L-gul (ZT 1, 3), GHB+PA (60 mg/kg) (ZT 1, 3) and GHB+PA (120 mg/kg) (ZT 3)
- NR bout duration (NRBD) ([5]; rats, ZT 5): significantly decreased NRBD during ZT 5 compared to GHB+L-gul and GHB+PA (120 mg/kg)
- Plasma half-life [6]: about 45 minutes

SMILES: O=C1O[C@H]([C@@H](O)CO)[C@H](O)[C@@H]1O [GL, L-gulono-γ-lactone]
- Effect on motor depression by oral GHB [1]: further significantly enhanced
- Effect on motor inhibition produced by GHB ([1]; mouse, in vivo, po): neither oral gluconic acid lactone or gulonolactone augmented the depressant effects of GHB
- Effect on GHB sleep time [3]: appeared to increase the sleep time

SMILES: O=C([O-])Cc1ccccc1.[Na+] [phenylacetate sodium salt]
- Solubility in saline [7]: can be readily dissolved in saline

SMILES: O=C1O[C@H](CO)[C@@H](O)[C@H](O)[C@H]1O [GAL, D-gluconic acid lactone]
- Effect on GHB induced motor inhibition ([1]; mice not fasting): most effectively potentiated GHB induced motor inhibition with significant effects at the 160 minute mark
- Effect on motor depression by oral GHB [1]: further significantly enhanced
- Effect on motor inhibition produced by GHB ([1]; Example 6: named agent 7.93 mmol/kg orally together with GHB 7.93 mmol/kg): neither oral gluconic acid lactone or gulonolactone augmented the depressant effects of GHB
- Effect on GHB sleep time [3]: appeared to increase the sleep time
- GHB induced sleep time ([3]; non-fasting mice): 155 ± 11 min

SMILES: O=C(O)Cc1ccccc1 [PA, phenylacetic acid]
- Effect on inhibitory effects of GHB on motor activity ([1]; Example 4: phenylacetic acid […] mg/kg mixed in solution with GHB 800 mg/kg, oral, vs GHB 800 mg/kg oral alone): significantly intensified and prolonged the inhibitory effects of GHB on motor activity

SMILES: O=C[C@H](O)[C@@H](O)[C@H](O)[C@H](O)C(=O)[O-].[Na+] [GCA, D-glucuronic acid sodium salt]
- Effect on GHB induced motor inhibition ([1]; mice not fasting): potentiated and prolonged the motor inhibition produced by GHB
- Effect on plasma half-life of GHB [2]: decreased the plasma half-life of GHB
- Effect on GHB induced sleep time ([3]; non-fasting mice): did not show an increase in GHB induced sleep time
